Measurements from patent publication US10729688B2, “Hepatitis B antiviral agents” (Enanta Pharmaceuticals, Inc., priority 2018, dated 2020).

Key:
HBV = test: HepAD38 antiviral assay: reduction of viral product accumulation; assay type: cell-based; settings: Hepatitis B virus, 120 h; HepAD38 cells, tetracycline removed; harvest five days after compound addition; viral product (virion DNA by qPCR, or HBsAg/HBeAg by ELISA) reduced by 50% relative to no drug controls
Procedure: (§1) Methods: HepAD38 cells were maintained as previously reported (Ladner et al, Antimicrob. Agents Chemother. 1997, 4, 1715). Briefly, cells were passaged upon attaining confluency in DMEM/F12 media in the presence of 10% FBS, Penn/Strep, 250 μg/mL G418, and 1 ug/ml tetracycline. Compounds were screened by first washing cells three times with PBS to remove tetracycline, and plating in 96 well plates at 35,000 cells/well. Compounds dissolved in DMSO were then diluted 1:200 into wells containing cells. Five days after compound addition, material was harvested for analysis. For an extended 8 day analysis, cells were plated and treated as described above, but media and compound were refreshed on day 2 and day 5 post initial treatment.
On harvest day, virion DNA was obtained by lysing with Sidestep Lysis and Stabilization Buffer and then quantified via quantitative real time PCR. Commercially available ELISA kits were used to quantitate the viral proteins HBsAg (Alpco) or HbeAg (US Biological) by following the manufacturer's recommended protocol after diluting samples to match the linear range of their respective assays. Irrespective of readout, compound concentrations that reduce viral product accumulation in the cell lysates or supernatants by 50% relative to no drug controls (EC50) are reported; EC50 ranges are as follows: A<0.1 μM; B 0.1-0.2 μM; C>0.2 μM.

[1] = Compound toxicity, ATPLite total ATP levels; assay type: cell-based; settings: human, HepAD38 cells; 15,000 cells/well; three days after compound addition; total ATP levels reduced by 50% relative to no drug controls
Procedure: as §1
Compound toxicity was evaluated by seeding cells at 15,000 cells/well and treating with compound as described above.

O=C(Nc1cc(F)c(F)c(F)c1)N1Cc2c(-c3ccc(F)cc3)cnn2[C@H]2CCC[C@H]21 [Example 1]
EC50 (HBV): > 0.2 µM

O=C(Nc1ccc(F)c(F)c1)N1Cc2c(-c3ccc(F)cc3)cnn2[C@H]2CCC[C@H]21 [Example 2]
EC50 (HBV): > 0.2 µM

O=C(Nc1ccc(F)c(Cl)c1)N1Cc2c(-c3ccc(F)cc3)cnn2[C@H]2CCC[C@H]21 [Example 3]
EC50 (HBV): > 0.2 µM

O=C(Nc1cc(F)c(F)c(F)c1)N1Cc2c(N3CCCS3(=O)=O)cnn2[C@H]2CCC[C@H]21 [Example 4]
EC50 (HBV): < 0.1 µM

O=C(Nc1ccc(F)c(F)c1)N1Cc2c(N3CCCS3(=O)=O)cnn2[C@H]2CCC[C@H]21 [Example 5]
EC50 (HBV): 0.1 to 0.2 µM

O=C(Nc1ccc(F)c(Cl)c1)N1Cc2c(N3CCCS3(=O)=O)cnn2[C@H]2CCC[C@H]21 [Example 6]
EC50 (HBV): < 0.1 µM

O=C(Nc1cc(F)c(F)c(F)c1)N1Cc2c(-c3ccc(F)cc3)cnn2[C@@H]2CCC[C@@H]21 [Example 7]
EC50 (HBV): 0.1 to 0.2 µM

O=C(Nc1ccc(F)c(F)c1)N1Cc2c(-c3ccc(F)cc3)cnn2[C@@H]2CCC[C@@H]21 [Example 8]
EC50 (HBV): < 0.1 µM

O=C(Nc1ccc(F)c(Cl)c1)N1Cc2c(-c3ccc(F)cc3)cnn2[C@@H]2CCC[C@@H]21 [Example 9]
EC50 (HBV): > 0.2 µM

O=C(Nc1cc(F)c(F)c(F)c1)N1Cc2c(N3CCCS3(=O)=O)cnn2[C@@H]2CCC[C@@H]21 [Example 10]
EC50 (HBV): < 0.1 µM
CC50 at 3 days [1]: > 25 µM

O=C(Nc1ccc(F)c(F)c1)N1Cc2c(N3CCCS3(=O)=O)cnn2[C@@H]2CCC[C@@H]21 [Example 11]
EC50 (HBV): < 0.1 µM
CC50 at 3 days [1]: > 25 µM

O=C(Nc1ccc(F)c(Cl)c1)N1Cc2c(N3CCCS3(=O)=O)cnn2[C@@H]2CCC[C@@H]21 [Example 12]
EC50 (HBV): < 0.1 µM
CC50 at 3 days [1]: > 25 µM

O=C(Nc1cc(F)c(F)c(F)c1)N1Cc2c(-c3cscn3)cnn2[C@@H]2CCC[C@@H]21 [Example 13]
EC50 (HBV): < 0.1 µM

O=C(Nc1ccc(F)c(F)c1)N1Cc2c(-c3cscn3)cnn2[C@@H]2CCC[C@@H]21 [Example 14]
EC50 (HBV): < 0.1 µM

C[C@@H]1N(c2cnn3c2CN(C(=O)Nc2cc(F)c(F)c(F)c2)[C@H]2CCC[C@H]23)C(=O)OC1(C)C [Example 15]
EC50 (HBV): < 0.1 µM
CC50 at 3 days [1]: > 25 µM

O=C(Nc1ccc(F)c(F)c1)N1Cc2c(N3CCCS3(=O)=O)cnn2CC12CC2 [Example 16]
EC50 (HBV): > 0.2 µM

C[C@@H]1N(c2cnn3c2CN(C(=O)Nc2ccc(F)c(F)c2)[C@H]2CCC[C@H]23)C(=O)OC1(C)C [Example 17]
EC50 (HBV): < 0.1 µM
CC50 at 3 days [1]: > 25 µM

C[C@@H]1N(c2cnn3c2CN(C(=O)Nc2ccc(F)c(Cl)c2)[C@H]2CCC[C@H]23)C(=O)OC1(C)C [Example 18]
EC50 (HBV): < 0.1 µM
CC50 at 3 days [1]: > 25 µM

CC1(C)CN(c2cnn3c2CN(C(=O)Nc2cc(F)c(F)c(F)c2)[C@H]2CCC[C@H]23)C(=O)O1 [Example 19]
EC50 (HBV): < 0.1 µM
CC50 at 3 days [1]: > 25 µM

CC(C)[C@H]1COC(=O)N1c1cnn2c1CN(C(=O)Nc1cc(F)c(F)c(F)c1)[C@H]1CCC[C@H]12 [Example 26]
EC50 (HBV): < 0.1 µM
CC50 at 3 days [1]: > 25 µM

O=C1OCCN1c1cnn2c1CN(C(=O)Nc1cc(F)c(F)c(F)c1)[C@H]1CCC[C@H]12 [Example 36]
EC50 (HBV): > 0.2 µM

O=C1CCCN1c1cnn2c1CN(C(=O)Nc1cc(F)c(F)c(F)c1)[C@H]1CCC[C@H]12 [Example 37]
EC50 (HBV): < 0.1 µM

C[C@H]1COC(=O)N1c1cnn2c1CN(C(=O)Nc1cc(F)c(F)c(F)c1)[C@H]1CCC[C@H]12 [Example 38]
EC50 (HBV): 0.1 to 0.2 µM

O=C(Nc1cc(F)c(F)c(F)c1)N1Cc2c(N3C(=O)O[C@@H]4CCC[C@@H]43)cnn2[C@@H]2CCC[C@@H]21 [Example 39]
EC50 (HBV): < 0.1 µM

O=C1OC(c2ccccc2)CN1c1cnn2c1CN(C(=O)Nc1cc(F)c(F)c(F)c1)[C@H]1CCC[C@H]12 (some centres unmarked) [Example 40]
EC50 (HBV): < 0.1 µM

COC(=O)Nc1cnn2c1CN(C(=O)Nc1cc(F)c(F)c(F)c1)[C@H]1CCC[C@H]12 [Example 41]
EC50 (HBV): > 0.2 µM

CCS(=O)(=O)Nc1cnn2c1CN(C(=O)Nc1cc(F)c(F)c(F)c1)[C@H]1CCC[C@H]12 [Example 43]
EC50 (HBV): > 0.2 µM

C[C@@H]1CN(c2cnn3c2CN(C(=O)Nc2cc(F)c(F)c(F)c2)[C@H]2CCC[C@H]23)C(=O)O1 [Example 44]
EC50 (HBV): < 0.1 µM

O=C1OC(c2ccccn2)CN1c1cnn2c1CN(C(=O)Nc1cc(F)c(F)c(F)c1)[C@H]1CCC[C@H]12 (some centres unmarked) [Example 45]
EC50 (HBV): < 0.1 µM

O=C1OC(C2CCCC2)CN1c1cnn2c1CN(C(=O)Nc1cc(F)c(F)c(F)c1)[C@H]1CCC[C@H]12 (some centres unmarked) [Example 46]
EC50 (HBV): > 0.2 µM

CCC(=O)Oc1cnn2c1CN(C(=O)Nc1cc(F)c(F)c(F)c1)[C@H]1CCC[C@H]12 [Example 47]
EC50 (HBV): > 0.2 µM

O=C(Nc1cc(F)c(F)c(F)c1)N1Cc2c(N3C(=O)C[C@@H]4CCC[C@@H]43)cnn2[C@@H]2CCC[C@@H]21 [Example 48]
EC50 (HBV): < 0.1 µM

O=C(Nc1cc(F)c(F)c(F)c1)N1Cc2c(N3C(=O)C[C@H]4CCC[C@H]43)cnn2[C@@H]2CCC[C@@H]21 [Example 49]
EC50 (HBV): 0.1 to 0.2 µM

O=C1CC2(CC2)CN1c1cnn2c1CN(C(=O)Nc1cc(F)c(F)c(F)c1)[C@H]1CCC[C@H]12 [Example 50]
EC50 (HBV): < 0.1 µM

O=C(Nc1cc(F)c(F)c(F)c1)N1Cc2c(N3CCCS3(=O)=O)cnn2[C@@H]2CCCC[C@@H]21 [Example 51]
EC50 (HBV): < 0.1 µM
CC50 at 3 days [1]: > 25 µM

O=C(Nc1cc(F)c(F)c(F)c1)N1Cc2c(N3C(=O)OC[C@@H]3c3ccccc3)cnn2[C@@H]2CCC[C@@H]21 [Example 52]
EC50 (HBV): > 0.2 µM

O=C(Nc1cc(F)c(F)c(F)c1)N1Cc2c(N3C(=O)O[C@@H]4CCCC[C@@H]43)cnn2[C@@H]2CCC[C@@H]21 [Example 53]
EC50 (HBV): < 0.1 µM
CC50 at 3 days [1]: > 25 µM

O=C(Nc1cc(F)c(F)c(F)c1)N1Cc2c(N3C(=O)O[C@H]4CCCC[C@@H]43)cnn2[C@@H]2CCC[C@@H]21 [Example 54]
EC50 (HBV): < 0.1 µM

O=C1OC2(CC2)CN1c1cnn2c1CN(C(=O)Nc1cc(F)c(F)c(F)c1)[C@H]1CCC[C@H]12 [Example 55]
EC50 (HBV): < 0.1 µM

O=C(Nc1cc(F)c(F)c(F)c1)N1Cc2c(N3C(=O)OC[C@@H]3C3CCCC3)cnn2[C@@H]2CCC[C@@H]21 [Example 56]
EC50 (HBV): 0.1 to 0.2 µM

O=C1OC2(CCCC2)CN1c1cnn2c1CN(C(=O)Nc1cc(F)c(F)c(F)c1)[C@H]1CCC[C@H]12 [Example 57]
EC50 (HBV): < 0.1 µM

O=C(Nc1cc(F)c(F)c(F)c1)N1Cc2c(N3C(=O)OC[C@@H]3C3CC3)cnn2[C@@H]2CCC[C@@H]21 [Example 58]
EC50 (HBV): 0.1 to 0.2 µM

O=C(Nc1cc(F)c(F)c(F)c1)N1Cc2c(N3C(=O)OC[C@H]3C3CC3)cnn2[C@@H]2CCC[C@@H]21 [Example 59]
EC50 (HBV): < 0.1 µM

CC1(C)COC(=O)N1c1cnn2c1CN(C(=O)Nc1cc(F)c(F)c(F)c1)[C@H]1CCC[C@H]12 [Example 60]
EC50 (HBV): < 0.1 µM
CC50 at 3 days [1]: > 25 µM

O=C(Nc1cc(F)c(F)c(F)c1)N1Cc2c(N3C(=O)OCC34CC4)cnn2[C@@H]2CCC[C@@H]21 [Example 61]
EC50 (HBV): 0.1 to 0.2 µM

CCS(=O)(=O)N(C)c1cnn2c1CN(C(=O)Nc1cc(F)c(F)c(F)c1)[C@H]1CCC[C@H]12 [Example 62]
EC50 (HBV): > 0.2 µM

O=C(Nc1cc(F)c(F)c(F)c1)N1Cc2c(N3CCCS3(=O)=O)cnn2[C@@H]2COC[C@@H]21 [Example 63]
EC50 (HBV): > 0.2 µM

O=C(Nc1cc(F)c(F)c(F)c1)N1Cc2c(N3C(=O)OC[C@@H]3Cc3ccccc3)cnn2[C@@H]2CCC[C@@H]21 [Example 64]
EC50 (HBV): 0.1 to 0.2 µM

CC(C)[C@@H]1N(c2cnn3c2CN(C(=O)Nc2cc(F)c(F)c(F)c2)[C@H]2CCC[C@H]23)C(=O)OC1(C)C [Example 65]
EC50 (HBV): < 0.1 µM

O=C1OCCCN1c1cnn2c1CN(C(=O)Nc1cc(F)c(F)c(F)c1)[C@H]1CCC[C@H]12 [Example 66]
EC50 (HBV): 0.1 to 0.2 µM

CC1(C)CCN(c2cnn3c2CN(C(=O)Nc2cc(F)c(F)c(F)c2)[C@H]2CCC[C@H]23)C(=O)O1 [Example 67]
EC50 (HBV): < 0.1 µM

CC(C)C[C@H]1COC(=O)N1c1cnn2c1CN(C(=O)Nc1cc(F)c(F)c(F)c1)[C@H]1CCC[C@H]12 [Example 68]
EC50 (HBV): 0.1 to 0.2 µM

CC(C)C[C@@H]1N(c2cnn3c2CN(C(=O)Nc2cc(F)c(F)c(F)c2)[C@H]2CCC[C@H]23)C(=O)OC1(C)C [Example 69]
EC50 (HBV): > 0.2 µM

CC1(C)OC(=O)N(c2cnn3c2CN(C(=O)Nc2cc(F)c(F)c(F)c2)[C@H]2CCC[C@H]23)[C@H]1Cc1ccccc1 [Example 70]
EC50 (HBV): < 0.1 µM

O=C(Nc1cc(F)c(F)c(F)c1)N1Cc2c(N3CCCS3(=O)=O)cnn2C[C@@H]1c1ccccc1 [Example 71]
EC50 (HBV): < 0.1 µM

O=C(Nc1cc(F)c(F)c(F)c1)N1Cc2c(N3CCCS3(=O)=O)cnn2C[C@@H]1c1ccccn1 [Example 72]
EC50 (HBV): < 0.1 µM
CC50 at 3 days [1]: > 25 µM

O=C(Nc1cc(F)c(F)c(F)c1)N1Cc2c(N3CCCS3(=O)=O)cnn2C[C@@H]1c1ncc[nH]1 [Example 74]
EC50 (HBV): > 0.2 µM

O=C(Nc1cc(F)c(F)c(F)c1)N1Cc2c(N3CCCS3(=O)=O)cnn2C[C@@H]1c1cnco1 [Example 75]
EC50 (HBV): 0.1 to 0.2 µM

O=C(Nc1cc(F)c(F)c(F)c1)N1Cc2c(N3CCCS3(=O)=O)cnn2C[C@@H]1c1ccn[nH]1 [Example 76]
EC50 (HBV): > 0.2 µM
